From PMC5974244, “Tumour-associated missense mutations in the dMi-2 ATPase alters nucleosome remodelling properties in a mutation-specific manner” (Nature Communications, 2018)

Legend:
dMi-2 [1] = target: T1, dMi-2 (Drosophila melanogaster, UniProt O97159, R552Q); experiment: nitrocellulose filter binding with [gamma-32P]ATP; conditions: labelled compound; same 90 nM protein, 0.25 mM MgCl2, 26 °C; printed as R572Q (human CHD4 numbering; also as R572Y in places, primer encodes Q)
T1 construct: gene Mi-2; FLAG-tagged dMi-2 (no truncation stated), baculovirus / Sf9 cells, anti-FLAG purified, FLAG peptide elution
T1 sequence (O97159 whole entry R552Q, the tested form may be a part): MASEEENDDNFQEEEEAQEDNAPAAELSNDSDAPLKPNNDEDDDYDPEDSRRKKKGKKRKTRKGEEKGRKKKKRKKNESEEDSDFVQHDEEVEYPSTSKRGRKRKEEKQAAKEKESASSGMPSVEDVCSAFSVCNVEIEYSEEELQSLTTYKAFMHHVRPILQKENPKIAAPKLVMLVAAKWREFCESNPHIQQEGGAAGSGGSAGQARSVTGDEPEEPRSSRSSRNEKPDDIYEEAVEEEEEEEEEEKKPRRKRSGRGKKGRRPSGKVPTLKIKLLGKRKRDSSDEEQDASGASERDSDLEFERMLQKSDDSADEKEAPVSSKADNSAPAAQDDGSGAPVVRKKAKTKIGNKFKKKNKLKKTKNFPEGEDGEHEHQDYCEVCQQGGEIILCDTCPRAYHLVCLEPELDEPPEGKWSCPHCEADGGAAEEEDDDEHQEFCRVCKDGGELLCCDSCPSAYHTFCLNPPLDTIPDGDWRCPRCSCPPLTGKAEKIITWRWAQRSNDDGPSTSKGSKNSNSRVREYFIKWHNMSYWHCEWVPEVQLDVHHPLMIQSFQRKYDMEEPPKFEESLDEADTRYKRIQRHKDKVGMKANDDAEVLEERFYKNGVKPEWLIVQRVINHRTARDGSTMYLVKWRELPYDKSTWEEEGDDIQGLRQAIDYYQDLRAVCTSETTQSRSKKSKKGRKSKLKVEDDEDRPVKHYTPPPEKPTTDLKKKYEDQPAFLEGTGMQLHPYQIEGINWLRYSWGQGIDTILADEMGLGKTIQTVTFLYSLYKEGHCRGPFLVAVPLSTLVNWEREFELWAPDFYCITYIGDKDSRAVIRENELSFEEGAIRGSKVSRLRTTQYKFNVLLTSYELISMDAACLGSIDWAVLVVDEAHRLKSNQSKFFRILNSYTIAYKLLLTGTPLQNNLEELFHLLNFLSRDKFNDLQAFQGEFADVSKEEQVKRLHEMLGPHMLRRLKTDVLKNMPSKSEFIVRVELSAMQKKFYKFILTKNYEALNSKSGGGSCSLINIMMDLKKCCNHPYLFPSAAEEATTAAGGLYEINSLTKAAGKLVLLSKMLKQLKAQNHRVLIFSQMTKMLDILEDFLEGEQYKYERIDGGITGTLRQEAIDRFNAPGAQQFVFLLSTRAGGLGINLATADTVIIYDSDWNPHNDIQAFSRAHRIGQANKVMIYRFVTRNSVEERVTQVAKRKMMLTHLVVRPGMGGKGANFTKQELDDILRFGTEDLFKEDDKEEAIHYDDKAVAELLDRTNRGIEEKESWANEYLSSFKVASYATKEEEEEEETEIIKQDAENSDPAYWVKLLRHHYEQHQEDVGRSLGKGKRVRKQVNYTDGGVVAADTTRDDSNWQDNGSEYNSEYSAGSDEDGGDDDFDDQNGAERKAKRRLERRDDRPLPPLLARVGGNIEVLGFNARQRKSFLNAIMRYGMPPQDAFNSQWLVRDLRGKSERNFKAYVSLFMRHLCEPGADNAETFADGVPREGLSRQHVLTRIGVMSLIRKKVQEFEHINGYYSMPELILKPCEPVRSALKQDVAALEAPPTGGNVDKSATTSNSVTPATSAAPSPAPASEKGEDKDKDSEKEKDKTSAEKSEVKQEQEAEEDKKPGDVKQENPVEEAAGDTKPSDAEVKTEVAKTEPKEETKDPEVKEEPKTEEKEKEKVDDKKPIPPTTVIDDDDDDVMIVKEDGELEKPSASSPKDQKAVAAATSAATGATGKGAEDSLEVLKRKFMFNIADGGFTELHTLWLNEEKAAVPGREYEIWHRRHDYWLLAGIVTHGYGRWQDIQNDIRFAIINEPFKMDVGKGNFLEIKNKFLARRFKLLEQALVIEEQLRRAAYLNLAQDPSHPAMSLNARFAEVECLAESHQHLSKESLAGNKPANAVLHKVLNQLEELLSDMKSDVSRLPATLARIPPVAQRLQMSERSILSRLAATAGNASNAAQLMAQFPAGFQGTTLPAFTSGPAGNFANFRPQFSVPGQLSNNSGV

dMi-2 [2] = target: T2, dMi-2 (Drosophila melanogaster, UniProt O97159); experiment: ATPase assay, TLC of [gamma-32P]ATP; assay type: biochemical; conditions: labelled compound as tracer; 20 µM ATP, saturating polynucleosomes, 26 °C, 30 min
T2 construct: gene Mi-2; FLAG-tagged dMi-2 (no truncation stated), baculovirus / Sf9 cells, anti-FLAG purified, FLAG peptide elution
T2 sequence (O97159 whole entry, the tested form may be a part): as the sequence (O97159 whole entry R552Q, the tested form may be a part) above, with Q552R counted along it

dMi-2 [3] = target: T3, dMi-2 (Drosophila melanogaster, UniProt O97159, V538F); experiment: nitrocellulose filter binding with [gamma-32P]ATP; conditions: labelled compound; same 90 nM protein, 0.25 mM MgCl2, 26 °C; printed as V558F (human CHD4 numbering)
T3 construct: gene Mi-2; FLAG-tagged dMi-2 (no truncation stated), baculovirus / Sf9 cells, anti-FLAG purified, FLAG peptide elution
T3 sequence (O97159 whole entry V538F, the tested form may be a part): as the sequence (O97159 whole entry R552Q, the tested form may be a part) above, with V538F, Q552R counted along it

dMi-2 [4] = target: T4, dMi-2 (Drosophila melanogaster, UniProt O97159, R1164Q); experiment: nitrocellulose filter binding with [gamma-32P]ATP; conditions: labelled compound; same 90 nM protein, 0.25 mM MgCl2, 26 °C; printed as R1162Q (human CHD4 numbering)
T4 construct: gene Mi-2; FLAG-tagged dMi-2 (no truncation stated), baculovirus / Sf9 cells, anti-FLAG purified, FLAG peptide elution
T4 sequence (O97159 whole entry R1164Q, the tested form may be a part): as the sequence (O97159 whole entry R552Q, the tested form may be a part) above, with Q552R, R1164Q counted along it

dMi-2 [5] = target: T2, dMi-2; experiment: nitrocellulose filter binding with [gamma-32P]ATP; conditions: labelled compound; 90 nM protein, 0.25 mM MgCl2, 100 mM KCl, 20 mM HEPES, 26 °C; competition by cold ATP
dMi-2 [6] = target: T5, dMi-2 (Drosophila melanogaster, UniProt O97159, H1153R); experiment: nitrocellulose filter binding with [gamma-32P]ATP; conditions: labelled compound; same 90 nM protein, 0.25 mM MgCl2, 26 °C; printed as H1151R (human CHD4 numbering)
T5 construct: gene Mi-2; FLAG-tagged dMi-2 (no truncation stated), baculovirus / Sf9 cells, anti-FLAG purified, FLAG peptide elution
T5 sequence (O97159 whole entry H1153R, the tested form may be a part): as the sequence (O97159 whole entry R552Q, the tested form may be a part) above, with Q552R, H1153R counted along it

dMi-2 [7] = target: T6, dMi-2 (Drosophila melanogaster, UniProt O97159, L914V); experiment: nitrocellulose filter binding with [gamma-32P]ATP; conditions: labelled compound; same 90 nM protein, 0.25 mM MgCl2, 26 °C; printed as L912V (human CHD4 numbering)
T6 construct: gene Mi-2; FLAG-tagged dMi-2 (no truncation stated), baculovirus / Sf9 cells, anti-FLAG purified, FLAG peptide elution
T6 sequence (O97159 whole entry L914V, the tested form may be a part): as the sequence (O97159 whole entry R552Q, the tested form may be a part) above, with Q552R, L914V counted along it

dMi-2 [8] = target: T7, dMi-2 (Drosophila melanogaster, UniProt O97159, C452Y); experiment: nitrocellulose filter binding with [gamma-32P]ATP; conditions: labelled compound; same 90 nM protein, 0.25 mM MgCl2, 26 °C; printed as C464Y (human CHD4 numbering)
T7 construct: gene Mi-2; FLAG-tagged dMi-2 (no truncation stated), baculovirus / Sf9 cells, anti-FLAG purified, FLAG peptide elution
T7 sequence (O97159 whole entry C452Y, the tested form may be a part): as the sequence (O97159 whole entry R552Q, the tested form may be a part) above, with C452Y, Q552R counted along it

dMi-2 [9] = target: T8, dMi-2 (Drosophila melanogaster, UniProt O97159, H1198Y); experiment: nitrocellulose filter binding with [gamma-32P]ATP; conditions: labelled compound; same 90 nM protein, 0.25 mM MgCl2, 26 °C; printed as H1196Y (human CHD4 numbering)
T8 construct: gene Mi-2; FLAG-tagged dMi-2 (no truncation stated), baculovirus / Sf9 cells, anti-FLAG purified, FLAG peptide elution
T8 sequence (O97159 whole entry H1198Y, the tested form may be a part): as the sequence (O97159 whole entry R552Q, the tested form may be a part) above, with Q552R, H1198Y counted along it

dMi-2 [10] = target: T9, dMi-2 (Drosophila melanogaster, UniProt O97159, L1217P); experiment: nitrocellulose filter binding with [gamma-32P]ATP; conditions: labelled compound; same 90 nM protein, 0.25 mM MgCl2, 26 °C; printed as L1215P (human CHD4 numbering)
T9 construct: gene Mi-2; FLAG-tagged dMi-2 (no truncation stated), baculovirus / Sf9 cells, anti-FLAG purified, FLAG peptide elution
T9 sequence (O97159 whole entry L1217P, the tested form may be a part): as the sequence (O97159 whole entry R552Q, the tested form may be a part) above, with Q552R, L1217P counted along it

Nc1ncnc2c1ncn2[C@@H]1O[C@H](COP(=O)(O)OP(=O)(O)OP(=O)(O)O)[C@@H](O)[C@H]1O [ATP]
% of WT binding activity (dMi-2 [1]): 32% | ATPase assay, TLC of [gamma-32P]ATP (dMi-2 [2]): We performed ATPase assays in the absence or presence of saturating amounts of salt dialysis-assembled | % of WT ATP binding activity (dMi-2 [3]): Most dMi-2 mutants displayed robust ATP binding activity | % of WT ATP binding activity (dMi-2 [4]): Most dMi-2 mutants displayed robust ATP binding activity | nitrocellulose filter binding with [gamma-32P]ATP (dMi-2 [5]): Binding of WT dMi-2 to radioactively labelled ATP was efficiently competed by an excess of | % of WT ATP binding activity (dMi-2 [6]): Most dMi-2 mutants displayed robust ATP binding activity | % of WT ATP binding activity (dMi-2 [7]): Most dMi-2 mutants displayed robust ATP binding activity | % of WT ATP binding activity (dMi-2 [8]): Most dMi-2 mutants displayed robust ATP binding activity | % of WT ATP binding activity (dMi-2 [9]): Most dMi-2 mutants displayed robust ATP binding activity | % of WT ATP binding activity (dMi-2 [10]): Most dMi-2 mutants displayed robust ATP binding activity
